Test results reported in patent publication US4839466A, “Insulin activity messengers” (The Rockefeller University, priority 1987, dated 1989).

Tests used:
BC3 Hl cells [1] = test: Diacylglycerol and phosphatidic acid production in labeled BC3 Hl myocytes; format: cell-based, murine
Description: FIG. 12--Time Course of Diacylglycerol and Phosphatidic Acid Production in Response to Insulin. Myocytes were incubated for 20 hrs. in serum free DMEM with [9,10^3 H]myristic acid (New England Nuclear), complexed 1:1 to bovine serum albumin. Insulin was added to cells in fresh media for the designated intervals, and reactions were stopped by removal of media and addition of 1 ml chloroform/methanol/1N HCl (200:100:1). 0.6ml H2 O was added and upper aqueous phases were discarded following centrifugation at 500×g for 5 minutes. The lower, organic phases were dried under N2 and resuspended in 1 ml diethyl ether followed by addition of 1 […]. The upper ether phase was aspirated and the lower phase reextracted with 1 ml diethyl ether. The combined ether phases, containing diacylglycerol, were dried under N2, resuspended in chloroform and spotted on silica gel G plates which were preactivated at 60° C. for 1 hr. Plates were twice developed in petroleum ether/diethyl ether/glacial acetic acid (70:30:2). Five ug of unlabeled dimyristoylglycerol were added to each sample. Spots were visualized by iodine staining. To the lower aqueous phases from the ether extraction were added 1 ml of chloroform/methanol (2:1). Following centrifugation, the resulting upper aqueous phases were discarded and the lower organic phases dried under N2, resuspended in chloroform/methanol/H2 O (9:7:2) and spotted on "soft plus" silica gel plates. These were developed in chloroform/pyridine/70% formic acid (50:30:7), and phosphatidic acid was identified by an iodine stained standard. Lipids were scraped and radioactivity determined in a liquid scintillation counter.
BC3 Hl cells were cultured on collagen coated multiwell plates or petri dishes in Dulbecco's minimal essential medium (DMEM) supplemented with 20% Nu serum or 10% fetal calf serum. Cells were grown to maximal density and confluence, at which time they become responsive to insulin. Radiolabeled precursors were added for 20 hrs. in serum-free medium. [^3 H]Myristic and arachidonic acids were complexed 1:1 to bovine serum albumin prior to addition.
(§1) Following preincubations with the appropriate isotopes, cells were resuspended in DMEM without serum and treated with 10 nM insulin at the designated intervals. Reactions were terminated by the addition of 1 ml chloroform/methanol/1N HCl (200:100:1), followed by 0.5 ml 10 mM formic acid. Following centrifugation at 500 x g for 5 min., the upper phase was discarded. For phospholipid analyses, the lower, organic phase was dried under N2, resuspended in chloroform/methanol/H2 O (9:7:2) and spotted on oxalate impregnated silica gel G plates. These were sequentially developed in chloroform/acetone/methanol/glacial acidic acid/H2 O (10:4:2:2:1) and chloroform/methanol/4N NH4 OH (45:35:10). One cm regions were scraped and eluted with chloroform/methanol (2:1) and counted. Phosphoinositide standards were identified by iodine staining.
For analysis of neutral lipids, the chloroform/methanol organic phases were dried under N2 and resuspended in 1 ml diethyl ether followed by addition of 1 ml 50 mM formic acid. The upper ether phase was aspirated and the lower aqueous phase was reextracted with 1 ml diethyl ether. The pooled ether phases were dried under N2, resuspended in chloroform and spotted on silica gel G plates which were preactiviated at 60° C. for 1 hr. Plates were twice developed in petroleum ether/diethyl ether/glacial acetic acid (70:30:2). Five ug of unlabeled dimyristoyl glycerol, myristic acid and monomyristoyl glycerol were added as carriers to each sample.

BC3 Hl cells [2] = test: Insulin-stimulated labeling/hydrolysis of glycolipid (PI-glycan) precursor and water soluble products in BC3 Hl cells; format: cell-based, murine
Description: FIG. 7--SAX HPLC of Radiolabeled Mediators from Insulin Treated Cells. BC3 Hl cells were cultured at 37° C. in Dulbecco's Minimal Essential Medium in the presence of 20% NU serum (Collaborative Research) on collagen coated 10 mm miniwells. Cells (1×10^6 /well) were preincubated with 10 uCi (A) [2,6^3 H]myoinositol or (B) [1,6^3 H]glucosamine (New England Nuclear) for 20 hours in the presence of 20% Nu Serum. Insulin was added to cells in monolayer in serum free media at a final concentration of 10 nM. Reactions were terminated by removal of media and addition of 1 ml chloroform/methanol/1N HCl (200:100:1), followed by addition of 0.5 ml 10 mM formic acid. Organic and aqueous phases were separated by centrifugation at 500 x g for 5 min.
The water soluble labeled products were purified by a modification of a previously described protocol for purification of cAMP phosphodiesterase (PDE) modulators. The aqueous phases were chromatographed on DEAE-Cellulose, eluted with 0.25 TEA-formate, pH 3.75. This fraction was eluted through a C-18 reversed phase sepak in the same buffer. Following lyophilization, the solution was eluted through Dowex 50WX-4 in 50 mM TEA-formate. pH 3.0. After exposure to activated charcoal, samples were chromatographed on an SAX HLPC column (Whatman), eluted with a linear, 15 minute gradient of 60% methanol (A) to 0.5M TEA-formate, pH 3.75 (B) at 1 ml/minute. One ml fractions were counted. The two peaks of insulin stimulated radioactivity coeluted with similarly purified, myocyte derived PDE modulating activities.
FIG. 9--Thin Layer Chromatography of the Radiolabeled Precursor from Insulin Treated Cells. (A) [^3 H]inositol and B) [^3 H]glucosaminelabeled cells were treated with or without 10 nM insulin. Following extraction and phase separation, the organic phase were dried under N2, resuspended in chloroform/methanol/H2 O (9:7:2); and spotted on oxalate impregnated Silica gel G plates. These were twice developed in chloroform/acetone/methanol/glacial acetic acid/H2 O (10:4:2:2:1). One cm regions were scraped and radioactivity determined by scintillation counting. Phosphoinositides were identified by iodine staining of standards.
FIG. 11--Time Course of Precursor Hydrolysis by Insulin. Cells prelabeled with [^3 H]inositol were treated with 10 nM insulin for the designated intervals. Cells were extracted and phase separated as detailed in FIG. 7. Aqueous phases were chromatographed up to and including the SAX HPLC step (upper panel). Results reflect counts from a combination of Peaks I and II. The ratio of counts in these peaks were unchanged over the time course. The precursor residing in the organic phases was identified by the peak on TLC with an Rf =0.22, corresponding to the species depleted by PI-PLC (FIG. 10).
as §1

With Insulin: monocomponent bovine insulin the “generation of [3H]stearyl diacylglycerol” value (BC3 Hl cells [1]) was “no detectable effect”, the “change in [3H]myristoyl diacylglycerol” value (BC3 Hl cells [1]; [3H]myristate labeled cells) was “rapid increase” and the “time of maximal increase in labeled diacylglycerol” value (BC3 Hl cells [1]; [3H]myristate labeled cells) was 1 min. The “change in [3H]arachidonyl diacylglycerol” value (BC3 Hl cells [1]; cells incubated with [3H]arachidonic acid) was “slow increase”, the “increase in levels of [3H]myristate phosphatidic acid” value (BC3 Hl cells [1]; insulin, achieved by 5 minutes) was 2 fold and the “maximal increase of labeled diacylglycerol over basal” value (BC3 Hl cells [1]; insulin, by 5-10 minutes) was 50%. For the same substance, the “increase in [3H]myristate diacylglycerol” value (BC3 Hl cells [1]; insulin, within 1 minute) was 40%, the “production of [3H]inositol containing products (Peaks I and II combined), share of the maximal effect” value (BC3 Hl cells [2]; 10 nM insulin, after 30 sec) was “Seventy” and the “increase of [3H]inositol radioactivity in the precursor over control levels” value (BC3 Hl cells [2]; 10 nM insulin, after the initial decrease) was 60%. The “decrease in [3H]inositol counts in the precursor” value (BC3 Hl cells [2]; 10 nM insulin, at 30 sec) was 20%, the “decrease in [3H]inositol labeling of the PI-glycan” value (BC3 Hl cells [2]; Example IV, after 30 seconds of insulin exposure) was 20% and the “decrease in [3H]myristate labeling of the PI-glycan” value (BC3 Hl cells [2]; Example IV, by 1 min. of insulin) was 60%. The “gradual increase in [3H]inositol counts of the PI-glycan” value (BC3 Hl cells [2]; Example IV, following the initial decrease) was 40%, the “time until [3H]myristate labeling of the PI-glycan returned to basal levels” value (BC3 Hl cells [2]; Example IV, insulin) was 20 to 30 min and the “increase of [3H]glucosamine incorporation in the precursor glycolipid peak” value (BC3 Hl cells [2]; insulin 10 nM for 10 min., TLC) was “approximately 40%”. The “increase of [3H]inositol incorporation in the precursor glycolipid peak” value (BC3 Hl cells [2]; insulin 10 nM for 10 min., TLC) was “approximately 40%”.
